This data set is described as follows: in vitro. The conditions noted are these: human, hela cells, % viability.

Take `COc1ccc(-c2cnc(N)c(N3CCC[C@@H]3CO)n2)c(OC)c1OC` [CBK063505]: the viability at 28.5 h, 10 µM was 98.5%.

For `Nc1ncc(-c2cccc3ccccc23)nc1N1CCC[C@@H]1CO` [CBK063517], the viability at 28.5 h, 10 µM turned out to be 94.1%.

`COc1cc(-c2cnc(N)c(NCC(C)(C)CO)n2)cc(OC)c1OC` [CBK063523]: the viability at 28.5 h, 10 µM came to 92.2%.

For `COc1ccc(-c2cnc(N)c(NCc3cccnc3)n2)c(OC)c1OC` [CBK063540], the viability at 28.5 h, 10 µM stood at 99%.

Regarding `COc1ccc(-c2cnc(N)c(NCC(C)(C)CO)n2)c(OC)c1OC` [CBK063542], the viability at 28.5 h, 10 µM was 103%.

With `Nc1ncc(-c2ccc(F)c(Cl)c2)nc1NCCCO` [CBK063555], the viability at 28.5 h, 10 µM is 101%.

Turning to `COc1cccc(-c2cnc(N)c(N3CCN(CCN(C)C)CC3)n2)c1` [CBK063561], the viability at 28.5 h, 10 µM is 108%.

For the compound `COCCNc1nc(-c2cccc3ccccc23)cnc1N` [CBK063574], the viability at 28.5 h, 10 µM was 99.1%.

For the compound `Nc1ncc(-c2cncnc2)nc1NCc1ccccc1` [CBK063584], the viability at 28.5 h, 10 µM was 103%.

On to `Nc1ncc(-c2cccc3ccccc23)nc1NC1CCCCC1` [CBK063588], for which the viability at 28.5 h, 10 µM stood at 94%.

As for `CC(C)(CO)CNc1nc(-c2ccc(F)cc2)cnc1N` [CBK063589], the viability at 28.5 h, 10 µM came out at 95.7%.

Regarding `CC(=O)c1ccc(-c2cnc(N)c(NC3CCCCC3)n2)s1` [CBK063596], the viability at 28.5 h, 10 µM was 106%.

As for `Nc1ncc(-c2ccsc2)nc1NCc1ccncc1` [CBK063614], the viability at 28.5 h, 10 µM stood at 107%.

Turning to `Nc1ncc(-c2cccc3cccnc23)nc1NCc1ccncc1` [CBK063622], the viability at 28.5 h, 10 µM was 87.4%.

For the compound `Nc1ncc(-c2ccncc2)nc1NCCCN1CCOCC1` [CBK063631], the viability at 28.5 h, 10 µM was determined as 98.9%.

Consider `Nc1ncc(-c2ccoc2)nc1NCc1ccncc1` [CBK063656], for which the viability at 28.5 h, 10 µM was 95.1%.

For the compound `Nc1ncc(-c2cccc3ccccc23)nc1Nc1ccc2[nH]ccc2c1` [CBK063659], the viability at 28.5 h, 10 µM amounted to 90.9%.

Take `NC(=O)c1cccc(-c2cnc(N)c(NCc3ccco3)n2)c1` [CBK063660]: the viability at 28.5 h, 10 µM is 116%.

Regarding `Nc1ncc(-c2ccc3c(c2)OCO3)nc1Nc1ccc2[nH]ccc2c1` [CBK063667], the viability at 28.5 h, 10 µM is 94.6%.

`Nc1ncc(-c2ccco2)nc1NCc1ccco1` [CBK063682]: the viability at 28.5 h, 10 µM was 91.8%.

For the compound `Nc1ncc(-c2ccc(O)cc2)nc1N1CCN(CCO)CC1` [CBK063685], the viability at 28.5 h, 10 µM was 105%.

On to `Nc1ncc(-c2cccc(/C=C/C(=O)O)c2)nc1NCc1ccco1` [CBK063691], for which the viability at 28.5 h, 10 µM turned out to be 98.7%.

As for `CC(C)[C@H](CO)Nc1nc(-c2cccc3ccccc23)cnc1N` [CBK063701], the viability at 28.5 h, 10 µM stood at 101%.

With `COc1ccccc1-c1cnc(N)c(N[C@H](C)c2ccccc2)n1` [CBK063705], the viability at 28.5 h, 10 µM was found to be 102%.

With `CC(C)CNc1nc(-c2cc(C(F)(F)F)cc(C(F)(F)F)c2)cnc1N` [CBK063708], the viability at 28.5 h, 10 µM was 85.7%.

`CC(C)[C@H](CO)Nc1nc(-c2ccc(S(C)(=O)=O)cc2)cnc1N` [CBK063718]: the viability at 28.5 h, 10 µM was 110%.

As for `COc1ccccc1-c1cnc(N)c(N[C@@H](C)c2ccccc2)n1` [CBK063721], the viability at 28.5 h, 10 µM is 107%.

Consider `CC(C)[C@@H](CO)Nc1nc(-c2cccc3ccccc23)cnc1N` [CBK063725], for which the viability at 28.5 h, 10 µM turned out to be 95.2%.

As to `CC(C)[C@@H](CO)Nc1nc(-c2occc2C=O)cnc1N` [CBK063733], the viability at 28.5 h, 10 µM was 102%.

With `COc1cncc(-c2cnc(N)c(N[C@@H](CO)C(C)C)n2)c1` [CBK063734], the viability at 28.5 h, 10 µM was 106%.

With `CC(C)[C@@H](CO)Nc1nc(-c2ccc(S(C)(=O)=O)cc2)cnc1N` [CBK063750], the viability at 28.5 h, 10 µM was 91.2%.

As to `C[C@H](Nc1nc(-c2ccc(-c3ccccc3)cc2)cnc1N)c1ccccc1` [CBK063760], the viability at 28.5 h, 10 µM worked out at 93.5%.

As to `COc1cc(-c2cnc(N)c(N[C@H](CO)C(C)C)n2)cc(OC)c1OC` [CBK063765], the viability at 28.5 h, 10 µM came out at 113%.

Take `C[C@H](Nc1nc(-c2cccc3ncccc23)cnc1N)c1ccccc1` [CBK063771]: the viability at 28.5 h, 10 µM was determined as 97.6%.

For the compound `Nc1ncc(-c2occc2C=O)nc1NC1CCOCC1` [CBK063789], the viability at 28.5 h, 10 µM is 103%.

For the compound `Nc1ncc(-c2ccccc2CO)nc1NC1CCOCC1` [CBK063799], the viability at 28.5 h, 10 µM was found to be 98.7%.

`Nc1ncc(-c2cc(C(F)(F)F)cc(C(F)(F)F)c2)nc1NC1CCC(O)CC1` (centres unmarked) [CBK063808]: the viability at 28.5 h, 10 µM is 92%.

Regarding `CCCC/C=C/c1cnc(N)c(Nc2ccc3[nH]ccc3c2)n1` [CBK063811], the viability at 28.5 h, 10 µM worked out at 95.7%.

`Nc1ncc(-c2ccco2)nc1NCC1CCOCC1` [CBK063825]: the viability at 28.5 h, 10 µM came to 100%.

In the case of `COc1ccc(C(C)C)cc1-c1cnc(N)c(Nc2ccc3[nH]ccc3c2)n1` [CBK063827], the viability at 28.5 h, 10 µM amounted to 97.1%.

Turning to `Nc1ncc(-c2cccnc2)nc1NC1CCC(O)CC1` (centres unmarked) [CBK063840], the viability at 28.5 h, 10 µM came to 92.7%.

Turning to `COc1ccc(-c2cnc(N)c(NC3CCOCC3)n2)c(OC)c1OC` [CBK063844], the viability at 28.5 h, 10 µM is 113%.

As for `CC(=O)Nc1cccc(-c2cnc(N)c(NC3CCOCC3)n2)c1` [CBK063845], the viability at 28.5 h, 10 µM amounted to 107%.

As to `Nc1ncc(-c2ccsc2)nc1NCC1CCOCC1` [CBK063848], the viability at 28.5 h, 10 µM stood at 102%.

Turning to `CS(=O)(=O)c1ccc(-c2cnc(N)c(NCC3CCOCC3)n2)cc1` [CBK063849], the viability at 28.5 h, 10 µM stood at 103%.

For the compound `COc1ccccc1-c1cnc(N)c(NC2CCOCC2)n1` [CBK063853], the viability at 28.5 h, 10 µM is 104%.

`COc1ccc(-c2cnc(N)c(NCC(C)C)n2)c(OC)c1OC` [CBK063855]: the viability at 28.5 h, 10 µM is 95.4%.

For `Nc1ncc(-c2cccc(F)c2)nc1NCC1CCOCC1` [CBK063860], the viability at 28.5 h, 10 µM turned out to be 98.7%.

Take `CC(C)CNc1nc(-c2cccc(O)c2)cnc1N` [CBK063862]: the viability at 28.5 h, 10 µM turned out to be 99.1%.

Regarding `CS(=O)(=O)c1ccc(-c2cnc(N)c(NC3CCC(O)CC3)n2)cc1` (centres unmarked) [CBK063865], the viability at 28.5 h, 10 µM was 110%.

Consider `Nc1ncc(-c2cncnc2)nc1NC1CC1` [CBK063869], for which the viability at 28.5 h, 10 µM was found to be 101%.

On to `Nc1ncc(-c2cncnc2)nc1NCC1CCOCC1` [CBK063877], for which the viability at 28.5 h, 10 µM came to 98.1%.

Turning to `Nc1ncc(-c2ccncc2)nc1NCc1cccnc1` [CBK063879], the viability at 28.5 h, 10 µM was determined as 103%.

For the compound `CCCC/C=C/c1cnc(N)c(Nc2ccc(OC)cc2)n1` [CBK063890], the viability at 28.5 h, 10 µM stood at 93.9%.

As to `Nc1cccc(-c2nc(-c3cccnc3)cnc2N)c1` [CBK063906], the viability at 28.5 h, 10 µM is 95.3%.

As to `Nc1cccc(-c2nc(-c3cncnc3)cnc2N)c1` [CBK063907], the viability at 28.5 h, 10 µM is 102%.

For `CN(C)CCN1CCN(c2nc(-c3occc3C=O)cnc2N)CC1` [CBK063917], the viability at 28.5 h, 10 µM amounted to 96.3%.

As to `Nc1cccc(-c2nc(-c3cccs3)cnc2N)c1` [CBK063923], the viability at 28.5 h, 10 µM came out at 94.5%.

Take `CN(C)c1ccc(-c2nc(-c3cccc(OC(F)(F)F)c3)cnc2N)cc1` [CBK063942]: the viability at 28.5 h, 10 µM turned out to be 98.3%.

For the compound `COc1ccc(-c2nc(-c3cccc(F)c3)cnc2N)cc1OC` [CBK063948], the viability at 28.5 h, 10 µM was determined as 98.4%.

With `CC(C)[C@H](CO)Nc1nc(-c2ccc(F)c(Cl)c2)cnc1N` [CBK063949], the viability at 28.5 h, 10 µM was 109%.

Consider `COc1ccc(Nc2nc(-c3cccnc3)cnc2N)cc1` [CBK063952], for which the viability at 28.5 h, 10 µM came to 90.3%.

Take `CCCC/C=C/c1cnc(N)c(-c2cccc(N)c2)n1` [CBK063954]: the viability at 28.5 h, 10 µM was 102%.

Take `CC(C)[C@H](CO)Nc1nc(-c2cccc(OC(F)(F)F)c2)cnc1N` [CBK063957]: the viability at 28.5 h, 10 µM turned out to be 85.7%.

On to `NCC1CCN(c2nc(-c3cc(C(F)(F)F)cc(C(F)(F)F)c3)cnc2N)CC1` [CBK063960], for which the viability at 28.5 h, 10 µM came to 87.3%.

On to `COc1ccc(-c2cnc(N)c(-c3ccc(F)c(Cl)c3)n2)cn1` [CBK063966], for which the viability at 28.5 h, 10 µM was determined as 111%.

For `CN(C)c1cccc(-c2nc(-c3ccco3)cnc2N)c1` [CBK063970], the viability at 28.5 h, 10 µM is 89.2%.

On to `CN(C)c1cccc(-c2nc(-c3cccs3)cnc2N)c1` [CBK063979], for which the viability at 28.5 h, 10 µM was 93.5%.

Regarding `Nc1ncc(-c2ccoc2)nc1-c1ccc(F)c(Cl)c1` [CBK063982], the viability at 28.5 h, 10 µM was determined as 93.9%.

Turning to `COCOc1ccc(-c2nc(-c3cnc(OC)nc3OC)cnc2N)cc1` [CBK063991], the viability at 28.5 h, 10 µM turned out to be 91.9%.

In the case of `COCOc1ccc(-c2nc(-c3cccnc3)cnc2N)cc1` [CBK063999], the viability at 28.5 h, 10 µM stood at 93.6%.

For the compound `Nc1ncc(-c2ccccc2)nc1-c1ccc(O)cc1` [CBK064030], the viability at 28.5 h, 10 µM amounted to 96.7%.

Regarding `CN(C)c1cccc(-c2nc(-c3ccc(C#N)cc3)cnc2N)c1` [CBK064049], the viability at 28.5 h, 10 µM came to 91.5%.

For `Nc1ncc(-c2cccnc2)nc1-c1ccc(C(=O)N2CCOCC2)cc1` [CBK064059], the viability at 28.5 h, 10 µM was 93.4%.

Consider `Nc1ncc(-c2ccc(Cl)cc2)nc1-c1ccc(CCC(=O)O)cc1` [CBK064063], for which the viability at 28.5 h, 10 µM was 92.9%.

Turning to `Nc1ncc(-c2ccc3c(c2)OCO3)nc1N1CCC(C(=O)O)CC1` [CBK064074], the viability at 28.5 h, 10 µM turned out to be 101%.

On to `CC(=O)c1ccc(-c2nc(-c3occc3C=O)cnc2N)cc1` [CBK064081], for which the viability at 28.5 h, 10 µM was 89.9%.

With `CCCC/C=C/c1cnc(N)c(Nc2ccc(OC)cc2C)n1` [CBK064090], the viability at 28.5 h, 10 µM was found to be 101%.

Regarding `Nc1ncc(-c2cccc(OC(F)(F)F)c2)nc1-c1ccc(C(=O)N2CCOCC2)cc1` [CBK064091], the viability at 28.5 h, 10 µM was 96.8%.

Consider `Nc1ncc(-c2ccco2)nc1-c1ccc(C=O)cc1` [CBK064095], for which the viability at 28.5 h, 10 µM was 102%.

As to `COc1ccc(-c2cnc(N)c(-c3ccc(C=O)cc3)n2)cn1` [CBK064096], the viability at 28.5 h, 10 µM was 90.8%.

Consider `COc1ccc(Nc2nc(-c3cc(C(C)C)ccc3OC)cnc2N)c(C)c1` [CBK064098], for which the viability at 28.5 h, 10 µM was 87%.

As for `COCOc1ccc(-c2nc(-c3ccco3)cnc2N)cc1` [CBK064108], the viability at 28.5 h, 10 µM worked out at 82.9%.

The term viability denotes a read-out of living cells in per cent, often relative to untreated cells.

Source of the values: publication PMC12040169 (PLOS Biology, 2025).
